The NIST ThermoML archive (doi:10.1016/j.jct.2013.09.035)

Conditions: Liquid, Vibrating tube method

CCOC(F)(C(F)(F)C(F)(F)C(F)(F)F)C(F)(C(F)(F)F)C(F)(F)F (centres undefined) [2-trifluoromethyl-3-ethoxydodecafluorohexane]
Conditions	mass density [kg/m3]
283.48 K, 60000 kPa	1751.01
283.49 K, 3000 kPa	1658.1
283.49 K, 50000 kPa	1737.96
283.49 K, 70000 kPa	1762.23
283.5 K, 5000 kPa	1662.38
283.5 K, 10000 kPa	1672.98
283.5 K, 30000 kPa	1709.09
283.5 K, 40000 kPa	1724.44
283.5 K, 80000 kPa	1773.1
283.5 K, 90000 kPa	1783.39
283.51 K, 100 kPa	1652.11
283.51 K, 1000 kPa	1653.72
283.51 K, 15000 kPa	1682.71
283.51 K, 20000 kPa	1691.9
283.51 K, 25000 kPa	1701.13
283.52 K, 100000 kPa	1793.19
293.04 K, 40000 kPa	1708.75
293.04 K, 50000 kPa	1723.04
293.04 K, 70000 kPa	1748.33
293.04 K, 90000 kPa	1770.03
293.04 K, 100000 kPa	1780.11
293.05 K, 100 kPa	1631.62
293.05 K, 1000 kPa	1633.93
293.05 K, 3000 kPa	1638.93
293.05 K, 5000 kPa	1643.69
293.05 K, 10000 kPa	1654.94
293.05 K, 15000 kPa	1665.37
293.05 K, 20000 kPa	1675.05
293.05 K, 25000 kPa	1684.16
293.05 K, 30000 kPa	1692.79
293.05 K, 60000 kPa	1736.39
293.05 K, 80000 kPa	1759.65
302.88 K, 100 kPa	1610.41
302.88 K, 1000 kPa	1612.92
302.88 K, 3000 kPa	1618.33
302.88 K, 10000 kPa	1635.7
302.88 K, 60000 kPa	1721.46
302.89 K, 5000 kPa	1623.52
302.89 K, 15000 kPa	1646.85
302.89 K, 20000 kPa	1657.18
302.89 K, 25000 kPa	1666.89
302.89 K, 30000 kPa	1676.01
302.89 K, 40000 kPa	1692.64
302.89 K, 50000 kPa	1707.74
302.89 K, 70000 kPa	1733.98
302.89 K, 80000 kPa	1745.75
302.89 K, 90000 kPa	1756.68
302.89 K, 100000 kPa	1767.03
313.15 K, 90000 kPa	1744.34
313.16 K, 3000 kPa	1598.14
313.16 K, 15000 kPa	1628.94
313.16 K, 20000 kPa	1639.8
313.16 K, 30000 kPa	1659.7
313.16 K, 40000 kPa	1677.38
313.16 K, 60000 kPa	1707.63
313.17 K, 100 kPa	1589.56
313.17 K, 1000 kPa	1592.21
313.17 K, 10000 kPa	1616.81
313.17 K, 25000 kPa	1650.1
313.17 K, 50000 kPa	1693.17
313.17 K, 70010 kPa	1720.7
313.17 K, 80000 kPa	1733
313.17 K, 100000 kPa	1755.06
313.18 K, 5000 kPa	1603.66
323.04 K, 5000 kPa	1585.04
323.04 K, 10000 kPa	1599.21
323.04 K, 15000 kPa	1612.03
323.04 K, 20000 kPa	1623.79
323.04 K, 25000 kPa	1634.67
323.04 K, 30000 kPa	1644.88
323.04 K, 40000 kPa	1663.35
323.04 K, 50000 kPa	1679.91
323.04 K, 60000 kPa	1694.93
323.04 K, 70000 kPa	1708.52
323.04 K, 80000 kPa	1721.13
323.04 K, 90000 kPa	1732.9
323.04 K, 100000 kPa	1743.96
323.05 K, 1000 kPa	1572.54
323.05 K, 3000 kPa	1578.97
323.06 K, 100 kPa	1569.59
332.94 K, 15000 kPa	1591.88
332.94 K, 20000 kPa	1604.4
332.94 K, 25000 kPa	1615.92
332.94 K, 30000 kPa	1626.63
332.94 K, 40000 kPa	1646.05
332.94 K, 50000 kPa	1663.31
332.94 K, 60000 kPa	1678.97
332.94 K, 70000 kPa	1693.19
332.94 K, 80000 kPa	1706.27
332.94 K, 90000 kPa	1718.48
332.94 K, 100000 kPa	1729.78
332.95 K, 3000 kPa	1556.26
332.95 K, 5000 kPa	1562.89
332.95 K, 10000 kPa	1578.13
332.96 K, 1000 kPa	1549.29
332.97 K, 100 kPa	1546.01
342.55 K, 100 kPa	1525.56
342.56 K, 1000 kPa	1529.11
342.56 K, 3000 kPa	1536.69
342.56 K, 5000 kPa	1543.86
342.56 K, 10000 kPa	1560.31
342.57 K, 15000 kPa	1574.95
342.57 K, 20000 kPa	1588.2
342.57 K, 25000 kPa	1600.4
342.57 K, 30000 kPa	1611.69
342.57 K, 40000 kPa	1632.02
342.57 K, 50000 kPa	1650.06
342.57 K, 60000 kPa	1666.29
342.57 K, 70000 kPa	1680.92
342.57 K, 80000 kPa	1694.39
342.57 K, 90000 kPa	1706.96
342.57 K, 100000 kPa	1718.69
352.56 K, 100 kPa	1503.72
352.56 K, 1000 kPa	1507.64
352.57 K, 3000 kPa	1515.99
352.57 K, 5000 kPa	1523.8
352.57 K, 10000 kPa	1541.62
352.57 K, 15000 kPa	1557.31
352.57 K, 20000 kPa	1571.45
352.57 K, 25000 kPa	1584.35
352.57 K, 30000 kPa	1596.28
352.57 K, 40000 kPa	1617.61
352.57 K, 50000 kPa	1636.45
352.57 K, 70000 kPa	1668.54
352.58 K, 60000 kPa	1653.3
352.58 K, 80000 kPa	1682.53
352.58 K, 90000 kPa	1695.44
352.58 K, 100000 kPa	1707.52
362.59 K, 5000 kPa	1503.25
362.59 K, 10000 kPa	1522.52
362.59 K, 15000 kPa	1539.4
362.6 K, 100 kPa	1481.19
362.6 K, 1000 kPa	1485.52
362.6 K, 3000 kPa	1494.68
362.6 K, 20000 kPa	1554.46
362.6 K, 25000 kPa	1568.1
362.6 K, 30000 kPa	1580.67
362.6 K, 40000 kPa	1603.06
362.6 K, 50000 kPa	1622.7
362.6 K, 60000 kPa	1640.27
362.6 K, 70000 kPa	1656.03
362.6 K, 80000 kPa	1670.49
362.6 K, 90000 kPa	1683.83
362.6 K, 100000 kPa	1696.22
